Test results published in US20110300132A1, “4-AMINOQUINAZOLINE PRODRUGS” (Concert Pharmaceuticals, Inc., priority 2008, published 2011).
Values after ≈ are worked out from the molar mass of the structure shown. Where two headings read alike, the source gives them in different places.

How the values were obtained:
[1] = Evaluation of aqueous solubility in different aqueous buffers (HPLC quantification); assay type: physicochemical; conditions: thermodynamic from solid, equilibrated at 25° C. for 24 hours
Protocol: Aqueous solubility of the compounds of this invention was determined by suspending sufficient compound in different aqueous buffers to give a maximum final concentration of ≧10 mg/mL of the compound. The resulting suspension was equilibrated at 25° C. for 24 hours then the pH is measured. The suspension was then filtered through a glass fibre C filter into a 96 well plate. The filtrate was diluted by a factor of 10. Quantification was by HPLC with reference to a standard solution in DMSO. Different volumes of the standard, diluted and undiluted sample solutions were injected. The solubility was calculated using the peak areas determined by integration of the peak found at the same retention time as the principal peak in the standard injection.

[2] = as reported on FDA approved label, cited from earlier work
[3] = Buffer: FaSSIF (fasted state simulated intestinal fluid), final pH 6.61 (103), 6.58 (101)

SMILES	solubility at 24 h ([1]; aqueous buffer, Buffer: Phosphate pH 6.3, final pH 6.45) [µg/mL]	solubility at 24 h ([1]; aqueous buffer, Buffer: Phosphate pH 6.8, final pH 7.03) [µg/mL]	solubility at 24 h ([1]; aqueous buffer, Buffer: Phosphate pH 7.3, final pH 7.41) [µg/mL]	solubility at 24 h [1, 3] [µg/mL]	Solubility ([2]; 0.1N HCl) [µg/mL]	Solubility ([2]; Water) [µg/mL]
CS(=O)(=O)CCN(Cc1ccc(-c2ccc3ncnc(Nc4ccc(OCc5cccc(F)c5)c(Cl)c4)c3c2)o1)C(=O)OCOP(=O)([O-])[O-].[Na+].[Na+] [Compound 103, Sodium (((5-(4-(3-Chloro-4-(3-fluorobenzyloxy)phenylamino)quinazolin-6-yl)furan-2-yl)methyl)(2-(methylsulfonyl)ethyl)carbamoyloxy)methyl phosphate]	170	520	4600	9100	–	–
CS(=O)(=O)CCN(Cc1ccc(-c2ccc3ncnc(Nc4ccc(OCc5cccc(F)c5)c(Cl)c4)c3c2)o1)C(=O)OCOP(=O)(O)O [Compound 101, Phosphonooxymethyl (5-(4-(3-chloro-4-(3-fluorobenzyloxy)phenylamino)quinazolin-6-yl)furan-2-yl)methyl(2-(methylsulfonyl)ethyl)carbamate]	–	–	–	25 (≈ 34 µM)	–	–
CS(=O)(=O)CCNCc1ccc(-c2ccc3ncnc(Nc4ccc(OCc5cccc(F)c5)c(Cl)c4)c3c2)o1.Cc1ccc(S(=O)(=O)O)cc1.Cc1ccc(S(=O)(=O)O)cc1.O [Lapatinib ditosylate, N-[3-Chloro-4-(3-fluorobenzyloxy)phenyl]-6-[5-[2-(methylsulfonyl)ethylaminomethyl]furan-2-yl]quinazolin-4-amine bis(4-methylbenzenesulfonate) hydrate]	–	–	–	–	1	7
